In patent US9340559B2, “Proteasome inhibitor delanzomib for use in the treatment of lupus” (Cephalon, Inc., priority 2011, dated 2016):

How the values were obtained:
[1] = test system: NZM mice; experiment: Survival, NZM lupus nephritis model, ip dosing (Example 2); assay type: in vivo, mouse; details: G6 50 mg/kg ip, 1× wk
[2] = test system: NZM mice; experiment: Body weight progression, NZM mice (Example 2); assay type: in vivo, mouse; details: G6 50 mg/kg ip, 1× wk
[3] = test system: NZM mice; experiment: Splenomegaly (spleen mass), NZM mice (Example 2); assay type: in vivo, mouse
[4] = test system: NZM mice; experiment: Urinalysis: total urine protein (proteinuria), NZM mice (Example 2); assay type: in vivo, mouse; details: G6 50 mg/kg ip, 1× wk
[5] = test system: NZM mice; experiment: Antinuclear antibody (ANA) ELISA (anti-chromatin, anti-Smith Ag, anti-dsDNA), serum of NZM mice (Example 2); assay type: in vivo, mouse
[6] = test system: NZM mice; assay type: in vivo, mouse
[7] = test system: NZM mice; experiment: Antibody secreting B-cell Elispot (anti-chromatin, total IgG ASC), spleens of NZM mice (Example 2); assay type: in vivo, mouse
Protocol: (§1) FIG. 34 depicts the frequency of anti-chromatin antibody secreting cells in the spleens of NZM mice. NZM treated mice spleens were processed for splenocytes for ex vivo Elispot assays. Elispot wells were coated with 10 μg/mL of boiled chicken chromatin or ovalbumin protein. Fresh, whole splenocytes were added to each well at 50,000 cells per well in cell culture medium. Cells were incubated overnight at 37° C. Developed wells provided spots that were counted as frequency of ASCs per million splenocytes.
as §1, with “35” for “34”, “total IgG” for “anti-chromatin”, “anti-mouse IgG, IgH, and IgL chains.” for “boiled chicken chromatin or ovalbumin protein.”
B-cell Elispot components are ordered from MabTech (Nacka Strand, Sweden) and nitrocellulose IP filter plates are ordered from Millipore (Billerica, Mass.). Elispot wells are coated with either purified bovine thymus dsDNA (Sigma), purified bovine Smith antigen (GenWay) or boiled filtered purified chicken chromatin from lysed chicken red blood cells (Rockland, Gilbertsville, Pa.) at 10 μg/mL. Spleens are processed using glass homogenization (frosted slides). Dispersed cell contents are washed in sterile HBSS and RBCs lysed using 1×RBC lysis buffer (BioLegend, Cat #420301). Processed splenocytes are added to each well and are not stimulated with lipopolysaccharide (LPS) to avoid skewing of true ex vivo frequencies of antibody-secreting cell types (ASCs). Anti-mouse pan-IgG is used as a positive control for total IgG producing ASCs and is used to normalize results. Frequencies for each antigen are identified in an initial test phase for each model. For chromatin and total IgG only, 30,000 splenocytes are added to each well; for Smith antigen and dsDNA, 500,000 cells are added to each well. Different numbers of splenocytes are added for different antigens due to saturation limits of spot frequencies per well. B-cell Elispots are incubated overnight at 37° C. To develop each assay, secondary antibody is added to each well, incubated, washed and alkaline phosphatase strepavidin (Jackson ImmunoResearch, West Grove, Pa.) is used as the conjugate; substrate used is BCIP-NBT (MabTech, Cincinnati, Ohio). Plates are developed until spots are visible. All Elispot analyses are performed using an Immunospot C.T.L. scanner and Biospot software (Cellular Technology Ltd., Shaker Heights, Ohio). Results are shown as values from which media and cells only wells are subtracted. Some values are negative due to high background.

[8] = test system: NZM mice; experiment: Collagen type-I cross-linker (CTx) bone resorption biomarker ELISA, serum of NZM mice; assay type: in vivo, mouse; details: G6 50 mg/kg ip, 1× wk
Protocol: Assay is performed as instructed by the manufacturer. Briefly, biotinylated ratlaps antigen is first added in each well of a 96-well ELISA plate. This plate is covered and incubated for 30 minutes at RT. Plate is washed five times with washing solution and incubated with standards or unknown samples in appropriate wells followed by primary Ab. Incubate overnight for 18 hours at 4° C. followed by washing with buffer. Secondary incubation includes a peroxidase conjugated goat anti-rabbit IgG added to each well and incubation at RT for 1 hour. Incubation with chromogenic substrate solution for 15 minutes at RT in the dark develops the plate for analysis. Stopping solution halts the reaction, absorbance is measured within 2 hours at 450 nm.

[9] = test system: NZM mice; experiment: Renal histopathology scoring (kidney IC-GN), NZM mice (Example 2); assay type: in vivo, mouse
Protocol: For histological analyses, the left kidney from each animal is removed and fixed in 10% buffered neutral formalin (EMD) for 48 hours on an orbital rocker at 25° C., then washed overnight with running dH2O and stored in 70% ethanol at 4° C. until ready to be processed. Kidney stains used for histological analyses included hematoxylin and eosin (H&E), Periodic Acid Schiff (PAS) and Trichrome stains (Wistar Institute, Philadelphia, Pa.). All 3 stained sections are used by the pathologist for scoring purposes. All histological scoring is performed blinded and by an independent board certified veterinary medical pathologist (Julie Engiles, VMD, DACVP). Multiple stains are used to determine score values. Images in FIG. 39 show worst affected area of section selected blindly by the pathologist.
Kidney IC-GN Scoring Method (Smith, Dong et al. 2007):
1. Glomerular cellularity—Score 1-5: Null, low, moderate, high, severe
2. Glomerular necrosis—Score 1-5: Null, low, moderate, high, severe
3. Glomerulosclerosis—Score 1-5: Null, low, moderate, high, severe
4. Interstitial infiltration—Score 1-5: Null, low, moderate, high, severe
5. Tubular atrophy—Score 1-5: Null, low, moderate, high, severe
6. Interstitial fibrosis—Score 1-5: Null, low, moderate, high, severe
7. Vasculitis—Score 1-5: Null, low, moderate, high, severe
Specific Pathologist Definitions: • Necrosis is defined by the presence of nuclear debris/pyknosis within the glomerular tuft indicative of “necrosis.” In many samples, this is a very mild, rare finding within only a very few segments of the glomerular tuft. Also consider effacement of the glomerular tuft by PAS positive, Trichrome negative material necrosis. • Glomerular sclerosis is defined by increased fibroplasia or fibrosis within the glomerular tuft or capsule. […] Most of the vascular changes are mild and could be considered “arteriosclerosis” characterized by proliferation of the smooth muscle cells, and hyalinization of the extracellular matrix. This change may reflect hypertension secondary to glomerular pathology. In very few animals is there overt “vasculitis.” Most inflammatory changes are within the walls of the blood vessels, with little to no damage to the endothelium, and no overt hemorrhage/fibrin leakage. Many also have perivascular rims of fibroblasts.

[10] = test system: NZM mice; experiment: Serum C3 complement ELISA, NZM mice (Example 2)

O=P1(N(CCCl)CCCl)NCCCO1 (centres unmarked) [CTX, Cyclophosphamide]
EOS survival, percent live mice from original number [1]: 70%
Body mass AUC, percent change vs vehicle [2]: +4%
Spleen mass EOS, percent change vs vehicle ([3]; G6 50 mg/kg ip, 1× wk): −42%
spleen mass compared to once-a-week bortezomib ([3]; p<0.05): reduced spleen mass significantly
Urine proteinuria AUC, percent change vs vehicle [4]: −68%
ANA Smith Ag AUC, percent change vs vehicle ([5]; G6 50 mg/kg ip, 1× wk): −86%
ANA chromatin AUC, percent change vs vehicle ([5]; G6 50 mg/kg ip, 1× wk): −51%
ANA dsDNA AUC, percent change vs vehicle ([5]; G6 50 mg/kg ip, 1× wk): −66%
reduction in anti-chromatin Ab relative to vehicle, significance ([5]; bortezomib, Dex or CTX treatment groups): none of which was significant
Cytokine IL-12 AUC, percent change vs vehicle ([6]; G6 50 mg/kg ip, 1× wk): −78%
Cytokine IL-13 AUC, percent change vs vehicle ([6]; G6 50 mg/kg ip, 1× wk): 486%
Cytokine IL-17A AUC, percent change vs vehicle ([6]; G6 50 mg/kg ip, 1× wk): 508%
Cytokine IP-10 AUC, percent change vs vehicle ([6]; G6 50 mg/kg ip, 1× wk): 338%
Cytokine MIG AUC, percent change vs vehicle ([6]; G6 50 mg/kg ip, 1× wk): 359%
Cytokine TNFα AUC, percent change vs vehicle ([6]; G6 50 mg/kg ip, 1× wk): −25%
p, serum IL-12p40/p70 concentration vs G5 Bortezomib 0.3 mg/kg 1× wk ip ([6]; G7 50 mg/kg 1× wk ip): NS (NS = not significant (p > 0.05))
p, serum IL-12p40/p70 concentration vs G6 Bortezomib 0.3 mg/kg 2× wk ip ([6]; G7 50 mg/kg 1× wk ip): NS (NS = not significant (p > 0.05))
p, serum IL-12p40/p70 concentration vs G8 Dex 1.5 mg/kg 3× wk ip ([6]; G7 50 mg/kg 1× wk ip): NS (NS = not significant (p > 0.05))
p, serum IL-12p40/p70 concentration vs G9 Vehicle 1× wk ip ([6]; G7 50 mg/kg 1× wk ip): p < 0.001
p, serum IL-13 concentration vs G5 Bortezomib 0.3 mg/kg 1× wk ip ([6]; G7 50 mg/kg 1× wk ip): p < 0.001
p, serum IL-13 concentration vs G6 Bortezomib 0.3 mg/kg 2× wk ip ([6]; G7 50 mg/kg 1× wk ip): p < 0.001
p, serum IL-13 concentration vs G8 Dex 1.5 mg/kg 3× wk ip ([6]; G7 50 mg/kg 1× wk ip): p < 0.001
p, serum IL-13 concentration vs G9 Vehicle 1× wk ip ([6]; G7 50 mg/kg 1× wk ip): p < 0.001
p, serum IL-17A concentration vs G5 Bortezomib 0.3 mg/kg 1× wk ip ([6]; G7 50 mg/kg 1× wk ip): NS (NS = not significant (p > 0.05))
p, serum IL-17A concentration vs G6 Bortezomib 0.3 mg/kg 2× wk ip ([6]; G7 50 mg/kg 1× wk ip): p < 0.001
p, serum IL-17A concentration vs G8 Dex 1.5 mg/kg 3× wk ip ([6]; G7 50 mg/kg 1× wk ip): p < 0.001
p, serum IL-17A concentration vs G9 Vehicle 1× wk ip ([6]; G7 50 mg/kg 1× wk ip): p < 0.001
p, serum IP-10 concentration vs G5 Bortezomib 0.3 mg/kg 1× wk ip ([6]; G7 50 mg/kg 1× wk ip): P < 0.001
p, serum IP-10 concentration vs G6 Bortezomib 0.3 mg/kg 2× wk ip ([6]; G7 50 mg/kg 1× wk ip): p < 0.001
p, serum IP-10 concentration vs G8 Dex 1.5 mg/kg 3× wk ip ([6]; G7 50 mg/kg 1× wk ip): P < 0.001
p, serum IP-10 concentration vs G9 Vehicle 1× wk ip ([6]; G7 50 mg/kg 1× wk ip): p < 0.001
p, serum MIG concentration vs G5 Bortezomib 0.3 mg/kg 1× wk ip ([6]; G7 50 mg/kg 1× wk ip): p < 0.001
p, serum MIG concentration vs G6 Bortezomib 0.3 mg/kg 2× wk ip ([6]; G7 50 mg/kg 1× wk ip): p < 0.001
p, serum MIG concentration vs G8 Dex 1.5 mg/kg 3× wk ip ([6]; G7 50 mg/kg 1× wk ip): p < 0.001
p, serum MIG concentration vs G9 Vehicle 1× wk ip ([6]; G7 50 mg/kg 1× wk ip): p < 0.001
p, serum TNFα concentration vs G5 Bortezomib 0.3 mg/kg 1× wk ip ([6]; G7 50 mg/kg 1× wk ip): NS (NS = not significant (p > 0.05))
p, serum TNFα concentration vs G6 Bortezomib 0.3 mg/kg 2× wk ip ([6]; G7 50 mg/kg 1× wk ip): NS (NS = not significant (p > 0.05))
p, serum TNFα concentration vs G8 Dex 1.5 mg/kg 3× wk ip ([6]; G7 50 mg/kg 1× wk ip): p <0.05
p, serum TNFα concentration vs G9 Vehicle 1× wk ip ([6]; G7 50 mg/kg 1× wk ip): NS (NS = not significant (p > 0.05))
ASC chromatin EOS, percent change vs vehicle ([7]; G6 50 mg/kg ip, 1× wk): −100%
ASC total IgG EOS, percent change vs vehicle ([7]; G6 50 mg/kg ip, 1× wk): −93%
p, frequency of anti-chromatin antibody secreting cells in spleen vs G5 Bortezomib 0.3 mg/kg 1× wk ip ([7]; G7 50 mg/kg 1× wk ip): P < 0.05
p, frequency of anti-chromatin antibody secreting cells in spleen vs G6 Bortezomib 0.3 mg/kg 2× wk ip ([7]; G7 50 mg/kg 1× wk ip): p < 0.05
p, frequency of anti-chromatin antibody secreting cells in spleen vs G9 Vehicle 1× wk ip ([7]; G7 50 mg/kg 1× wk ip): p < 0.01
p, frequency of total IgG antibody secreting cells in spleen vs G5 Bortezomib 0.3 mg/kg 1× wk ip ([7]; G7 50 mg/kg 1× wk ip): p < 0.001
p, frequency of total IgG antibody secreting cells in spleen vs G6 Bortezomib 0.3 mg/kg 2× wk ip ([7]; G7 50 mg/kg 1× wk ip): p < 0.001
p, frequency of total IgG antibody secreting cells in spleen vs G8 Dex 1.5 mg/kg 3× wk ip ([7]; G7 50 mg/kg 1× wk ip): P < 0.01
p, frequency of total IgG antibody secreting cells in spleen vs G9 Vehicle 1× wk ip ([7]; G7 50 mg/kg 1× wk ip): p < 0.01
Serum CTx linker AUC, percent change vs vehicle [8]: −26%
p, glomerular cellularity (GC) vs G7 Vehicle ([9]; G5 50 mg/kg 1× wk): p < 0.05
Kidney glomerular cellularity, percent change vs vehicle ([9]; G6 50 mg/kg ip, 1× wk): −7%
Kidney glomerular necrosis, percent change vs vehicle ([9]; G6 50 mg/kg ip, 1× wk): 42%
Kidney glomerulosclerosis, percent change vs vehicle ([9]; G6 50 mg/kg ip, 1× wk): 34%
Kidney interstitial fibrosis, percent change vs vehicle ([9]; G6 50 mg/kg ip, 1× wk): 11%
Kidney interstitial infiltration, percent change vs vehicle ([9]; G6 50 mg/kg ip, 1× wk): 11%
Kidney tubular atrophy, percent change vs vehicle ([9]; G6 50 mg/kg ip, 1× wk): 18%
Kidney vasculitis, percent change vs vehicle ([9]; G6 50 mg/kg ip, 1× wk): 9%
Serum C3 complement AUC, percent change vs vehicle ([10]; G6 50 mg/kg ip, 1× wk): −18%
p, serum C3 complement levels vs G8 Dex 1.5 mg/kg 3× wk ip ([10]; G7 50 mg/kg 1× wk ip): p < 0.01
